The target in this experiment is T1, FLT-3 (Homo sapiens, UniProt P36888).
T1 construct: 0.02% BSA and 3 nM FLT-3
T1 sequence (P36888 27-993): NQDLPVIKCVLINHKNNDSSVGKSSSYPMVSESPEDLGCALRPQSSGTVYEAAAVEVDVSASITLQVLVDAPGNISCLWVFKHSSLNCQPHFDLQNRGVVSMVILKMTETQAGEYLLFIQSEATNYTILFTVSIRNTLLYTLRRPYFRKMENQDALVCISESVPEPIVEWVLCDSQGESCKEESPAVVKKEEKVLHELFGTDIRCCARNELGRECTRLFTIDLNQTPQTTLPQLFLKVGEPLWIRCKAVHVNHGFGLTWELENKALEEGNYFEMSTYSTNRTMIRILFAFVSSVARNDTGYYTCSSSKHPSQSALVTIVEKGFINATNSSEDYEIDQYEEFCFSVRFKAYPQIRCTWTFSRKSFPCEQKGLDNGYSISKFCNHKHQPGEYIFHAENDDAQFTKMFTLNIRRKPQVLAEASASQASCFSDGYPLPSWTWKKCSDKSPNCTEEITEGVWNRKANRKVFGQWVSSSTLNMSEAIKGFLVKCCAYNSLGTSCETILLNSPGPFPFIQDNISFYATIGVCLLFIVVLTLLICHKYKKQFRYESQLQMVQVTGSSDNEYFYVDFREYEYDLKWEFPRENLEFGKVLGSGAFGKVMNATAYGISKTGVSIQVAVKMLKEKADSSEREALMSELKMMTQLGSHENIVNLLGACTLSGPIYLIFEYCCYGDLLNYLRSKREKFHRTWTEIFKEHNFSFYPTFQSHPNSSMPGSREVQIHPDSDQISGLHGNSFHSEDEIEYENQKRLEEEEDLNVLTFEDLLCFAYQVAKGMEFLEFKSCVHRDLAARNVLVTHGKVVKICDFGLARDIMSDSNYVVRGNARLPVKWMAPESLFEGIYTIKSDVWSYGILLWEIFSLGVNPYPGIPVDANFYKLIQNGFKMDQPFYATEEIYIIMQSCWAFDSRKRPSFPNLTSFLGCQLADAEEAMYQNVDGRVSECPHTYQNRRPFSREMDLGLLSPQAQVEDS
As to the kind of experiment: Inhibition of FLT-3, radiometric filter-binding assay. The class given is biochemical. To be noted: 90 μM ATP, 0.5 mg/mL pE4Y, room temperature. In short, it runs like this:
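Radiometric filter-binding assay of FLT-3 (3 nM in Solution 2; final conc not stated) phosphorylating poly(Glu,Tyr) 4:1 (0.5 mg/mL) with 90 μM ATP plus [γ-33P]ATP, in HEPES pH 7.5, MgCl2, NaCl, DTT, BSA, 2.5% DMSO. 12-point titration, typically 0.01–5 μM, 20 min at room temperature; TCA-stopped, filtered, scintillation-counted; IC50 or Ki fitted.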

Bounds are passed on as bounds.

`CN(C)c1ccc(-c2cnc3[nH]cc(-c4nncn4-c4cccc(F)c4F)c3c2)cc1` [Compound 106, (4-{3-[4-(2,3-Difluoro-phenyl)-4H-[1,2,4]triazol-3-yl]-1H-pyrrolo[2,3-b]pyridin-5-yl}-phenyl)-dimethyl-amine] gave a Ki of 200 to 1000 nM. The compound `Fc1cccc(-n2cnnc2-c2c[nH]c3ncc(-c4ccc(CN5CCOCC5)cc4)cc23)c1F` [Compound 109, 3-[4-(2,3-Difluoro-phenyl)-4H-[1,2,4]triazol-3-yl]-5-(4-morpholin-4-ylmethyl-phenyl)-1H-pyrrolo[2,3-b]pyridine] displayed an inhibition constant Ki of 200 to 1000 nM. As for `CN1CCN(c2ccc(-c3cnc4[nH]cc(-c5nncn5-c5cccc(F)c5F)c4c3)cc2)CC1` [Compound 110, 3-[4-(2,3-Difluoro-phenyl)-4H-[1,2,4]triazol-3-yl]-5-[4-(4-methyl-piperazin-1-yl)-phenyl]-1H-pyrrolo[2,3-b]pyridine], the figure is 200 to 1000 nM; as for `CN1CCN(c2ccc(-c3cnc4[nH]cc(-c5nncn5-c5cccc(F)c5F)c4c3)cn2)CC1` [Compound 112], 200 to 1000 nM. Under `Fc1cccc(-n2cnnc2-c2c[nH]c3ncc(-c4ccc(N5CCC[C@H]5CN5CCCC5)nc4)cc23)c1F` [Compound 115, 3-[4-(2,3-Difluoro-phenyl)-4H-[1,2,4]triazol-3-yl]-5-[6-(2-pyrrolidin-1-ylmethyl-pyrrolidin-1-yl)-pyridin-3-yl]-1H-pyrrolo[2,3-b]pyridine] stands 200 to 1000 nM. As for `OC1CCN(c2ccc(-c3cnc4[nH]cc(-c5nncn5-c5cccc(F)c5F)c4c3)cn2)CC1` [Compound 116, 5′-{3-[4-(2,3-Difluoro-phenyl)-4H-[1,2,4]triazol-3-yl]-1H-pyrrolo[2,3-b]pyridin-5-yl}-3,4,5,6-tetrahydro-2H-[1,2′]bi-pyridinyl-4-ol], the figure is 200 to 1000 nM; as for `CN1CCCN(c2ccc(-c3cnc4[nH]cc(-c5nncn5-c5cccc(F)c5F)c4c3)cn2)CC1` [Compound 117, 3-[4-(2,3-Difluoro-phenyl)-4H-[1,2,4]triazol-3-yl]-5-[6-(4-methyl-[1,4]diazepan-1-yl)-pyridin-3-yl]-1H-pyrrolo [2,3-b]-pyridine], 200 to 1000 nM. `Fc1cccc(-n2cnnc2-c2c[nH]c3ncc(-c4ccc(N5CCCC5)nc4)cc23)c1F` [Compound 118, 3-[4-(2,3-Difluoro-phenyl)-4H-[1,2,4]triazol-3-yl]-5-(6-pyrrolidin-1-yl-pyridin-3-yl)-1H-pyrrolo[2,3-b]pyridine] showed an inhibition constant (Ki) of 200 to 1000 nM. As for `CN(C)CCNc1ccc(-c2cnc3[nH]cc(-c4nncn4-c4cccc(F)c4F)c3c2)cn1` [Compound 119, N′-(5-{3-[4-(2,3-Difluoro-phenyl)-4H-[1,2,4]triazol-3-yl]-1H-pyrrolo[2,3-b]pyridin-5-yl}-pyridin-2-yl)-N,N-dimethyl-ethane-1,2-diamine], the figure is 200 to 1000 nM; as for `Fc1cccc(-c2cnoc2-c2c[nH]c3ncc(/C=C/n4cncn4)cc23)c1F` [Compound 133, 3-[4-(2,3-Difluoro-phenyl)-isoxazol-5-yl]-5-(2-[1,2,4]triazol-1-yl-vinyl)-1H-pyrrolo[2,3-b]pyridine], less than 200 nM. As for `Cc1noc(-c2c[nH]c3ncccc23)c1-c1cccc(F)c1F` [Compound 134, 3-[4-(2,3-Difluoro-phenyl)-3-methyl-isoxazol-5-yl]-1H-pyrrolo[2,3-b]pyridine], the Ki is less than 200 nM. Compound `Fc1cccc(-c2cnoc2-c2c[nH]c3ncc(C4=CCC(NCc5ccccc5)CC4)cc23)c1F` (stereo not drawn) [Compound 136, Benzyl-(4-{3-[4-(2,3-difluoro-phenyl)-isoxazol-5-yl]-1H-pyrrolo[2,3-b]pyridin-5-yl}-cyclohex-3-enyl)-amine] returned a Ki of 200 to 1000 nM.

`NC1CC=C(c2cnc3[nH]cc(-c4oncc4-c4cccc(F)c4F)c3c2)CC1` (stereo not drawn) [Compound 137, 4-{3-[4-(2,3-Difluoro-phenyl)-isoxazol-5-yl]-1H-pyrrolo [2,3-b]pyridin-5-yl}-cyclohex-3-enylamine] showed an inhibitory constant (Ki) of less than 200 nM.

In turn, `CN(C)C1CC=C(c2cnc3[nH]cc(-c4oncc4-c4cccc(F)c4F)c3c2)CC1` (stereo not drawn) [Compound 138, (4-{3-[4-(2,3-Difluoro-phenyl)-isoxazol-5-yl]-1H-pyrrolo[2,3-b]pyridin-5-yl}-cyclohex-3-enyl)-dimethyl-amine] yielded a Ki of less than 200 nM. Take `Fc1cccc(-c2cnoc2-c2c[nH]c3ncc(C4=CCC(N5CCOCC5)CC4)cc23)c1F` (stereo not drawn) [Compound 139, 3-[4-(2,3-Difluoro-phenyl)-isoxazol-5-yl]-5-(4-morpholin-4-yl-cyclohex-1-enyl)-1H-pyrrolo[2,3-b]pyridine]: the Ki was less than 200 nM. As for `CS(=O)(=O)NC1CC=C(c2cnc3[nH]cc(-c4oncc4-c4cccc(F)c4F)c3c2)CC1` (stereo not drawn) [Compound 140, N-(4-{3-[4-(2,3-Difluoro-phenyl)-isoxazol-5-yl]-1H-pyrrolo[2,3-b]pyridin-5-yl}-cyclohex-3-enyl)-methanesulfonamide], the figure is less than 200 nM; as for `Cn1ccc2c(-c3oncc3-c3cccc(F)c3F)c[nH]c2c1=O` [Compound 144, 3-[4-(2,3-Difluoro-phenyl)-isoxazol-5-yl]-6-methyl-1,6-dihydro-pyrrolo[2,3-c]pyridin-7-one], 1000 to 12500 nM; as for `Nc1[nH]c2ncccc2c1-c1oncc1-c1cccc(F)c1F` [Compound 152], 1000 to 12500 nM.

As usually defined, the Ki is a dissociation constant, usually derived from enzyme kinetics or from competition with a known ligand.

(Values after US7446199B2, “Compositions useful as inhibitors of protein kinases” (Vertex Pharmaceuticals Incorporated, priority 2003, dated 2008).)
